Measurements from US6384026B1, “Macrocyclic polyamine lactones and derivatives thereof and their use as arthropod repellents” (Cornell Research Foundation, Inc., priority 1998, dated 2002).

Legend:
[1] = tested on: ants; test: Tests with ants on pupal secretion and its tocopherol components; assay type: in vivo, Crematogaster cerasi; details: E. borealis pupal secretion and components
[2] = tested on: beetles (Carabidae); test: Feeding tests with beetles (Carabidae); assay type: in vivo
[3] = tested on: Periplaneta americana (American cockroach); test: Irritancy tests with cockroaches; assay type: in vivo
[4] = Isomerization (O-to-N acyl transfer) on storage, analysed by HPLC-MS; assay type: physicochemical; details: substantially pure samples stored at 25° C. for 2 days
[5] = tested on: ladybird beetles (Harmonia axyridis); test: Deterrency bioassays with predacious insects: ladybird beetles; assay type: in vivo; details: synthetic samples
Text: (§1) Synthetic samples of macrocycles PAML 681, PAML 908, and PAML 1362 (structure 6 of FIG. 3, wherein m, n, o, p, q, and r=7) as well as mixtures of synthetic PAML 681 and Vitamin E acetate were used in bioassays with various predacious insects, for example, ladybird beetles (Harmonia axyridis) and ants of the genus Crematogaster.

[6] = tested on: ants of the genus Crematogaster; test: Deterrency bioassays with predacious insects: ants; assay type: in vivo; details: synthetic samples
Text: as §1

[7] = tested on: H. axyridis adults; test: Feeding choice bioassay with ladybird beetle (treated vs control moth eggs); assay type: in vivo, Harmonia axyridis; details: choice test, moth eggs treated topically with ethyl ether solution vs ethyl ether only
Protocol: The biological activity of synthetic PAML 681 was also evaluated in a feeding bioassay with a ladybird beetle. The bioassay was a choice test in which individual H. axyridis adults were presented with two offerings of an edible food item, for example, insect eggs of the moth Uthesisia ornatrix, of which one offering was treated by topical application of an ethyl ether solution of PAML 681, while the other offering (“control”) was treated with ethyl ether only. […] Similar experiments were performed with synthetic samples of PAML 908 and PAML 1362, as well as with mixtures of PAML 681 and alpha-tocopherol acetate.

| monoamide formed (relative percentage of the total ion current) [4] [%] | SMILES | deterrency in tests with ants [1] | insect repellent and deterrent activity [2] | insect repellent and deterrent activity (irritancy) [3] | activity as insect deterrent [5] | activity as insect deterrent [6] | antifeedant activity [7] |
| --- | --- | --- | --- | --- | --- | --- | --- |
|  | CC(=O)Oc1c(C)c(C)c2c(c1C)CCC(C)(CCC[C@H](C)CCC[C@H](C)CCCC(C)C)O2 (some centres unmarked) [vitamin E acetate, Vitamin E acetate] | essentially inactive |  |  |  |  |  |
| 7 | CC1CCCCCCCCC(=O)OCCNC(C)CCCCCCCCC(=O)OCCNC(C)CCCCCCCCC(=O)OCCN1 (centres unmarked) [PAML 681] |  | strong insect repellent and deterrent | strong insect repellent and deterrent | highly active as insect deterrents | highly active as insect deterrents | strong antifeedant activity |
| 10 | CC1CCCCCCCCC(=O)OCCNC(C)CCCCCCCCC(=O)OCCNC(C)CCCCCCCCC(=O)OCCNC(C)CCCCCCCCC(=O)OCCN1 (centres unmarked) [PAML 908] |  |  |  | highly active as insect deterrents | highly active as insect deterrents | strong antifeedant activity |
